Reference: PubChem BioAssay (NCI)
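Grown in 96-well plates, cells were treated for 48 hours with each compound at five concentrations. Insufficient inhibition: endpoint recorded as highest concentration tested. Abbreviation: GI50, concentration required for 50% inhibition of growth. At the TGI there is no net growth.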

What was measured:
Assay in all cases: growth of human tumour cells (NCI), 48 h
[1] = system: HOP-62 NSCLC
[2] = system: OVCAR-8 ovarian
[3] = system: SNB-19 CNS
[4] = system: ACHN renal
[5] = system: UACC-62 melanoma
[6] = system: BT-549 breast
[7] = system: MDA-MB-231 breast
[8] = system: UO-31 renal
[9] = system: NCI-H23 lung
[10] = system: MOLT-4 leukemia
[11] = system: COLO 205 colon
[12] = system: SK-MEL-5 melanoma
[13] = system: HCT-15 colon
[14] = system: HL-60(TB) leukemia
[15] = system: SK-MEL-28 melanoma
[16] = system: HCC-2998 colon
[17] = system: SK-MEL-2 melanoma
[18] = system: RPMI-8226 leukemia
[19] = system: PC-3 prostate
[20] = system: HT29 colon
[21] = system: UACC-257 melanoma
[22] = system: CAKI-1 renal
[23] = system: 786-0 renal
[24] = system: OVCAR-4 ovarian
[25] = system: CCRF-CEM leukemia
[26] = system: NCI-H522 lung
[27] = system: SR leukemia
[28] = system: NCI/ADR-RES ovarian
[29] = system: MCF7 breast
[30] = system: SNB-75 CNS
[31] = system: U251 CNS
[32] = system: OVCAR-3 ovarian
[33] = system: SF-539 CNS
[34] = system: HOP-92 NSCLC
[35] = system: HS 578T breast
[36] = system: SN12C renal
[37] = system: K-562 leukemia
[38] = system: NCI-H460 lung
[39] = system: M14 melanoma
[40] = system: HCT-116 colon
[41] = system: OVCAR-5 ovarian
[42] = system: DU-145 prostate
[43] = system: SW-620 colon
[44] = system: SK-OV-3 ovarian
[45] = system: SF-295 CNS
[46] = system: RXF 393 renal
[47] = system: A549 NSCLC
[48] = system: A498 renal
[49] = system: T-47D breast
[50] = system: KM12 colon
[51] = system: MALME-3M melanoma
[52] = system: SF-268 CNS
[53] = system: LOX IMVI melanoma
[54] = system: MDA-MB-435

CCN(Cc1c(F)cccc1Cl)c1ccc(CO)c(Cl)c1
GI50 [1]: 0.174 µM | TGI [1]: 18.3 µM | GI50 [2]: 7.65 µM | TGI [2]: 23.9 µM | GI50 [3]: 15.7 µM | TGI [3]: 40.1 µM | GI50 [4]: 15.1 µM | TGI [4]: 29.4 µM | GI50 [5]: 0.0419 µM | TGI [5]: 0.269 µM | GI50 [6]: 16.5 µM | TGI [6]: 31.2 µM | GI50 [7]: 13.3 µM | TGI [7]: 27.1 µM | GI50 [8]: 12.9 µM | TGI [8]: 26.1 µM | GI50 [9]: 13.9 µM | TGI [9]: 33.8 µM | GI50 [10]: 17.1 µM | TGI [10]: 39.8 µM | GI50 [11]: 0.694 µM | TGI [11]: 6.13 µM | GI50 [12]: 0.5 µM | TGI [12]: 20.1 µM | GI50 [13]: 10 µM | TGI [13]: 24.7 µM | GI50 [14]: 13 µM | TGI [14]: 37.3 µM | GI50 [15]: 13.1 µM | TGI [15]: 27.4 µM | GI50 [16]: 3.27 µM | TGI [16]: 18.3 µM | GI50 [17]: 0.785 µM | TGI [17]: 19.9 µM | GI50 [18]: 0.173 µM | TGI [18]: 22 µM | GI50 [19]: 12 µM | TGI [19]: 25.1 µM | GI50 [20]: 0.668 µM | TGI [20]: 16 µM | GI50 [21]: < 0.0248 µM | TGI [21]: 0.05 µM | GI50 [22]: 1.2 µM | TGI [22]: 17.4 µM | GI50 [23]: 14.9 µM | TGI [23]: 30.1 µM | GI50 [24]: 0.0648 µM | TGI [24]: 0.661 µM | GI50 [25]: 16.2 µM | TGI [25]: 39 µM | GI50 [26]: 13.8 µM | TGI [26]: 28.5 µM | GI50 [27]: 16.5 µM | TGI [27]: 42.7 µM | GI50 [28]: 10.4 µM | TGI [28]: 28.7 µM | GI50 [29]: < 0.02 µM | TGI [29]: 14.4 µM | GI50 [30]: 11.1 µM | TGI [30]: 25.5 µM | TGI [31]: 16.6 µM | GI50 [32]: < 0.034 µM | TGI [32]: 0.297 µM | GI50 [33]: 15.5 µM | TGI [33]: 29.8 µM | GI50 [34]: 0.116 µM | TGI [34]: 0.933 µM | GI50 [35]: 18.2 µM | TGI [35]: 47 µM | GI50 [36]: 11.9 µM | TGI [36]: 25 µM | GI50 [37]: 0.2 µM | TGI [37]: 12.6 µM | GI50 [38]: < 0.0249 µM | TGI [38]: 11.2 µM | GI50 [39]: 17.6 µM | TGI [39]: 35.9 µM | GI50 [40]: < 0.0172 µM | TGI [40]: 12.1 µM | TGI [41]: 0.106 µM | GI50 [42]: 11.8 µM | TGI [42]: 24.9 µM | GI50 [43]: 0.175 µM | TGI [43]: 20 µM | GI50 [44]: 2.52 µM | TGI [44]: 13 µM | GI50 [45]: 0.178 µM | TGI [45]: 15.7 µM | GI50 [46]: 6.31 µM | TGI [46]: 27 µM | GI50 [47]: 0.573 µM | TGI [47]: 16.6 µM | GI50 [48]: < 0.0146 µM | TGI [48]: 0.0457 µM | GI50 [49]: < 0.0153 µM | TGI [49]: 0.0496 µM | GI50 [50]: 11.8 µM | TGI [50]: 25.8 µM | GI50 [51]: 14.1 µM | TGI [51]: 28.6 µM | GI50 [52]: 16.4 µM | TGI [52]: 31.4 µM | GI50 [53]: 18 µM | TGI [53]: 33.5 µM | GI50 [54]: 10.9 µM | TGI [54]: 24.3 µM
